# Active and inactive are the calls of the source.
# Key:
# [1] = target: Dual specificity tyrosine-phosphorylation-regulated kinase 1A (Rattus norvegicus, UniProt Q63470); assay type: biochemical, Homo sapiens
# [2] = target: Heat shock protein HSP 90-alpha (Homo sapiens, UniProt P07900); assay type: functional, organism-based
# [3] = nonselective StAR promoter luciferase inhibitors – cell-based, luminescence, luciferase reporter, counter-screen for LRH-1 inverse agonist project, dose response (AID 651969); assay type: functional
# Steroidogenic factor 1 = Steroidogenic factor 1 (Homo sapiens, UniProt Q13285); experiment: Counterscreen for inverse agonists of the liver receptor homolog-1 (LRH-1; NR5A2): Luminescence-based cell-based high throughput dose response assay to identify inverse agonists of the Steroidogenic Factor 1 Nuclear Receptor (SF1; NR5A1).; assay type: functional
# Chain of Steroidogenic factor 1 (Q13285 whole entry): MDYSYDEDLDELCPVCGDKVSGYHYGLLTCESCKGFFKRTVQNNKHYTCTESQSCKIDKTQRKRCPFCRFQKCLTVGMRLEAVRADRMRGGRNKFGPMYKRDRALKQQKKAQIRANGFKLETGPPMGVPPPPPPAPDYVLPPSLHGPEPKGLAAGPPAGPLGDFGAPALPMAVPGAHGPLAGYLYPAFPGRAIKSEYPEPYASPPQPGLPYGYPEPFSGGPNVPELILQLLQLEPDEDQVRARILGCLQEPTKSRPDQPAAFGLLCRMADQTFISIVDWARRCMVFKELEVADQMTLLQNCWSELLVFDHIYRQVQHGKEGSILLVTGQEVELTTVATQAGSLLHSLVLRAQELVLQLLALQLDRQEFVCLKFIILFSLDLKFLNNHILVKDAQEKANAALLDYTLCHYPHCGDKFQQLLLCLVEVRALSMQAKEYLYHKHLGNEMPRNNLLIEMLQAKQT
# [4] = target: Nuclear receptor subfamily 5 group A member 2 (Homo sapiens, UniProt O00482); assay type: functional, cell-based;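 also: HEK293T cells transfected with LRH-1 and a StAR promoter luciferase reporter; potency for inhibitors that lower LRH-1 driven reporter light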
# Chain of Nuclear receptor subfamily 5 group A member 2 (O00482 whole entry): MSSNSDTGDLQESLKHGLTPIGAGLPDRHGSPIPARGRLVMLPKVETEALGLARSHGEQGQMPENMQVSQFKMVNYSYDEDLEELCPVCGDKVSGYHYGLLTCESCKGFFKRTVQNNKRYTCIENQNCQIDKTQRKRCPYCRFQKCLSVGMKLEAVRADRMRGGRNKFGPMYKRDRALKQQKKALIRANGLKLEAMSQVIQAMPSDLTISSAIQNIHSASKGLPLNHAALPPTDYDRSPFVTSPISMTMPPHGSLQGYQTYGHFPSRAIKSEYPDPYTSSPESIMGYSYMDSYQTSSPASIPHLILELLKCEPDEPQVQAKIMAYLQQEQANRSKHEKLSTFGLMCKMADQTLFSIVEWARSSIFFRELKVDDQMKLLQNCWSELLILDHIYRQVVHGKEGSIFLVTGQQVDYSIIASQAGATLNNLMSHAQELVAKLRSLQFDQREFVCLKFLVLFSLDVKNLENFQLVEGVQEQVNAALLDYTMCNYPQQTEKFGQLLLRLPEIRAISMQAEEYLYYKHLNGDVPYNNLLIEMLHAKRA
# [5] = target: 72 kDa type IV collagenase (Homo sapiens, UniProt P08253); experiment: Dose Response validation of uHTS RPN11 inhibitor hits using a MMP-2 Fluorescence assay.; assay type: functional
# Chain of 72 kDa type IV collagenase (P08253 whole entry): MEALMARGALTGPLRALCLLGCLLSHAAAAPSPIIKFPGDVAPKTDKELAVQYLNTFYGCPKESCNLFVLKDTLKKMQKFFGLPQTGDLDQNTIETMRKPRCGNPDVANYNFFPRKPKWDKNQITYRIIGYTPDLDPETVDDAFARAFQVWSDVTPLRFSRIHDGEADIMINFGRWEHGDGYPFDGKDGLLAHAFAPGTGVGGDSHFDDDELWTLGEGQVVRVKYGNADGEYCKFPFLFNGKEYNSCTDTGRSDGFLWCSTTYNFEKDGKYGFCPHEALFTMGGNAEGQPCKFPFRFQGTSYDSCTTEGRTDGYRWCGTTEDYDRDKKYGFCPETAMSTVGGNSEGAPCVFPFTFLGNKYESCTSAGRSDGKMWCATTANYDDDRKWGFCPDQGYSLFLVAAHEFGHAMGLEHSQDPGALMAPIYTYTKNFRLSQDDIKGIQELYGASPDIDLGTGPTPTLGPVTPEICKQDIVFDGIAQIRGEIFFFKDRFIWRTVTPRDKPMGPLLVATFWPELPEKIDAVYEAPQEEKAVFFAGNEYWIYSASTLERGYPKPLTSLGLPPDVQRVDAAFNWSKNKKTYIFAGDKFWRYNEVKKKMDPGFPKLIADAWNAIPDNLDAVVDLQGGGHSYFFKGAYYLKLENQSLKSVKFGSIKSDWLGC
# [6] = target: 26S proteasome non-ATPase regulatory subunit 14 (Homo sapiens, UniProt O00487); experiment: inhibition of proteasome subunit RPN11 – biochemical, fluorescence polarization, uHTS hits, confirmation (AID 602368); assay type: functional
# Chain of 26S proteasome non-ATPase regulatory subunit 14 (O00487 whole entry): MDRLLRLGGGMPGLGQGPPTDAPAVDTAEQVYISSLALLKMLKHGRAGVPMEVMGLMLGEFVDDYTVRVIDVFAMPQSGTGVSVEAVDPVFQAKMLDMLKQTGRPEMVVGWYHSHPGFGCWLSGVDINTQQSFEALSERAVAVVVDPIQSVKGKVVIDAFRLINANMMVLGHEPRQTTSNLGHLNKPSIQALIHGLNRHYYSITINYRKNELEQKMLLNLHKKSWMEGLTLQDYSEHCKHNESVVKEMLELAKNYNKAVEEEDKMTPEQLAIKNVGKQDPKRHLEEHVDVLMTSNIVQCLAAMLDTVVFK
# Prothrombin = Prothrombin (Bos taurus, UniProt P00735); experiment: thrombin protease inhibitors – biochemical, fluorescence polarization, uHTS hits, dose response (AID 602369); assay type: functional
# [7] = target: T1, Type-1 angiotensin II receptor (Homo sapiens, UniProt P30556); experiment: antagonism of angiotensin II type 1 receptor – cell-based, uHTS hits, selectivity assay for APJ receptor antagonist project, dose response (AID 463214); assay type: functional;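 also: antagonist potency against angiotensin II stimulated AT1 response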
# T1 sequence (P30556 whole entry): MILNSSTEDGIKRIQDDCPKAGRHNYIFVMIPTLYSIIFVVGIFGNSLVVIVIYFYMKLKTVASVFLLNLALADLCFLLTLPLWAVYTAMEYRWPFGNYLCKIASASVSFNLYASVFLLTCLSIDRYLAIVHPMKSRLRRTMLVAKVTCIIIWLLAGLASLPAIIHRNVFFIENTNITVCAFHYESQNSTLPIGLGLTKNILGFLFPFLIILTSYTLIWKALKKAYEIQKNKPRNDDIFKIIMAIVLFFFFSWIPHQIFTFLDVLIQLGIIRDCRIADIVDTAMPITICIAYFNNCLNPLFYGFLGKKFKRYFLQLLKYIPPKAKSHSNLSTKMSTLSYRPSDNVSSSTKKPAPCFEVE
# Beta-galactosidase = Beta-galactosidase (Escherichia coli, UniProt Q8VNN2); experiment: PubChem AID 485352; assay type: functional
# Chain of Beta-galactosidase (Q8VNN2 whole entry): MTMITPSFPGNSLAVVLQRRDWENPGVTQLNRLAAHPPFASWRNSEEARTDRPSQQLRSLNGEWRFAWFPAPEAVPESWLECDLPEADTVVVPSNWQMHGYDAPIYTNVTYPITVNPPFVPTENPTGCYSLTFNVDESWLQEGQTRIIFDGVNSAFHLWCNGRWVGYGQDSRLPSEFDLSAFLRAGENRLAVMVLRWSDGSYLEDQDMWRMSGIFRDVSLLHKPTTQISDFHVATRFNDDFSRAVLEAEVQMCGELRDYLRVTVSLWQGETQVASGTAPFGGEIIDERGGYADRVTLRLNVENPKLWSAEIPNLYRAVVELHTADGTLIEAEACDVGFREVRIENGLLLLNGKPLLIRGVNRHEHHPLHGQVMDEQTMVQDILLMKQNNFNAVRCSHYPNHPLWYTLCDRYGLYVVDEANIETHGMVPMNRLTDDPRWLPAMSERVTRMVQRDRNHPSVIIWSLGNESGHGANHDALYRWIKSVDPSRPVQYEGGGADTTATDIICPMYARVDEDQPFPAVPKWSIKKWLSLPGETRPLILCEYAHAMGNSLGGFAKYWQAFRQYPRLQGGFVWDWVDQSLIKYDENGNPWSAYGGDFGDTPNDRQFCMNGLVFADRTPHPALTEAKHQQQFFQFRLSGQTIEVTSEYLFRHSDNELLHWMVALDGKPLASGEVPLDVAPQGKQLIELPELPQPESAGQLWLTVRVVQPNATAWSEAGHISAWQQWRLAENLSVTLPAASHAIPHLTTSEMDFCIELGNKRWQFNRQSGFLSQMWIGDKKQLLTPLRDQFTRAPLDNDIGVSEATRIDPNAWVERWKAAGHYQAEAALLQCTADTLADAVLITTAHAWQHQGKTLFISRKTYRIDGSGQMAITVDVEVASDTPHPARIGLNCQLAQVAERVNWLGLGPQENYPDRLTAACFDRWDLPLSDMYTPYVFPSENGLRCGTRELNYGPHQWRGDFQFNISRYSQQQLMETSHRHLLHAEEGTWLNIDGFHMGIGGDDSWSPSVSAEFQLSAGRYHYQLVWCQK
# Streptococcus = experiment: GAS UMAA2166 growth inhibition – luminescence, BacTiterGlo, counter-screen for streptokinase expression inhibitor project, dose response (AID 1915); assay type: functional, organism-based;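 also: potency for reduction of bacterial viability or growth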
# [8] = system: Streptococcus sp. 'group A'; experiment: Streptococcus pyogenes SK(-)GAS viability under kanamycin – luminescence, BacTiterGlo, confirmation, counter-screen for streptokinase expression inhibitor project, dose response (AID 1900); assay type: functional, organism-based
# Caspase-3 = target: T2, Caspase-3 (Homo sapiens, UniProt P42574); assay type: functional;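 also: Dose-response selectivity test against caspase-3 for candidate inhibitors of sentrin-specific proteases (SENPs)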
# T2 sequence (P42574 whole entry): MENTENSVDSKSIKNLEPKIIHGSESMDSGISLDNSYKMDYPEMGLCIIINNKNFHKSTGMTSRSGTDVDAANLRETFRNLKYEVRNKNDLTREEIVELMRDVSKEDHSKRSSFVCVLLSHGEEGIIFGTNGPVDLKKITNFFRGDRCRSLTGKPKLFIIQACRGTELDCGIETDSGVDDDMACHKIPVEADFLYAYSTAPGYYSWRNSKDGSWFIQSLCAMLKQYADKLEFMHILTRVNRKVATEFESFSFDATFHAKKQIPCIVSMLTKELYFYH
# [9] = target: T3, Sentrin-specific protease 7 (Homo sapiens, UniProt Q9BQF6); assay type: functional;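 also: Luminescence-based dose-response confirmation of ultra-high-throughput screening hits, measuring inhibition of SENP7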
# T3 sequence (Q9BQF6 whole entry): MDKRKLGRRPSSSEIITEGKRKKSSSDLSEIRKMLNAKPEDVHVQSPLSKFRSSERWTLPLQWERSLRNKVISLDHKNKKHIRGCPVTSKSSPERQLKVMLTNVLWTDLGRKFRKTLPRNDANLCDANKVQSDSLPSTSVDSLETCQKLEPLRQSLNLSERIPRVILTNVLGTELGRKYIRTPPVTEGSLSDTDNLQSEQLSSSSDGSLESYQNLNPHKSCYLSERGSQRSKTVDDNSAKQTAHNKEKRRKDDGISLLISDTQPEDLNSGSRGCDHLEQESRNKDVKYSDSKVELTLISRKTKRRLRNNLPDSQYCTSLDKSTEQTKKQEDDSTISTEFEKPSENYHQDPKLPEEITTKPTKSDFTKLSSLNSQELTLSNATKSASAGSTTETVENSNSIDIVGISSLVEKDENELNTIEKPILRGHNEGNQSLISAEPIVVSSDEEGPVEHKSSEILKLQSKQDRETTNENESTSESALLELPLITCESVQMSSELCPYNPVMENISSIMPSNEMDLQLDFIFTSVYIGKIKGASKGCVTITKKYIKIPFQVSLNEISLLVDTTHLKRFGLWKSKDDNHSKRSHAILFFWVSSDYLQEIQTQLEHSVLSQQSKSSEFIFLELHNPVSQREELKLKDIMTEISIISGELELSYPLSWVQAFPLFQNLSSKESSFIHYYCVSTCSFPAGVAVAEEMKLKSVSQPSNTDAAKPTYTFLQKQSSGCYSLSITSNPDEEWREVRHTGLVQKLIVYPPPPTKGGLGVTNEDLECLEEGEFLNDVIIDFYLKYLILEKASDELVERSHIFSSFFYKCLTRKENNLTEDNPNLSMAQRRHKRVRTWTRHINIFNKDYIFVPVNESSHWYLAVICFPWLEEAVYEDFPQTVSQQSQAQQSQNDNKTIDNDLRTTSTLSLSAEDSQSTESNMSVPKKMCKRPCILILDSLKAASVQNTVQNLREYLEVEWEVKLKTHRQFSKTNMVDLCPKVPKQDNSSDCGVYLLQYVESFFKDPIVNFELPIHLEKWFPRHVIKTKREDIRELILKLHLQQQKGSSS
# [10] = target: T4, Sentrin-specific protease 6 (Homo sapiens, UniProt Q9GZR1); assay type: functional;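 also: Luminescence-based dose-response confirmatory assay of SENP6 inhibition, following up an ultra-high-throughput screen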
# T4 sequence (Q9GZR1 whole entry): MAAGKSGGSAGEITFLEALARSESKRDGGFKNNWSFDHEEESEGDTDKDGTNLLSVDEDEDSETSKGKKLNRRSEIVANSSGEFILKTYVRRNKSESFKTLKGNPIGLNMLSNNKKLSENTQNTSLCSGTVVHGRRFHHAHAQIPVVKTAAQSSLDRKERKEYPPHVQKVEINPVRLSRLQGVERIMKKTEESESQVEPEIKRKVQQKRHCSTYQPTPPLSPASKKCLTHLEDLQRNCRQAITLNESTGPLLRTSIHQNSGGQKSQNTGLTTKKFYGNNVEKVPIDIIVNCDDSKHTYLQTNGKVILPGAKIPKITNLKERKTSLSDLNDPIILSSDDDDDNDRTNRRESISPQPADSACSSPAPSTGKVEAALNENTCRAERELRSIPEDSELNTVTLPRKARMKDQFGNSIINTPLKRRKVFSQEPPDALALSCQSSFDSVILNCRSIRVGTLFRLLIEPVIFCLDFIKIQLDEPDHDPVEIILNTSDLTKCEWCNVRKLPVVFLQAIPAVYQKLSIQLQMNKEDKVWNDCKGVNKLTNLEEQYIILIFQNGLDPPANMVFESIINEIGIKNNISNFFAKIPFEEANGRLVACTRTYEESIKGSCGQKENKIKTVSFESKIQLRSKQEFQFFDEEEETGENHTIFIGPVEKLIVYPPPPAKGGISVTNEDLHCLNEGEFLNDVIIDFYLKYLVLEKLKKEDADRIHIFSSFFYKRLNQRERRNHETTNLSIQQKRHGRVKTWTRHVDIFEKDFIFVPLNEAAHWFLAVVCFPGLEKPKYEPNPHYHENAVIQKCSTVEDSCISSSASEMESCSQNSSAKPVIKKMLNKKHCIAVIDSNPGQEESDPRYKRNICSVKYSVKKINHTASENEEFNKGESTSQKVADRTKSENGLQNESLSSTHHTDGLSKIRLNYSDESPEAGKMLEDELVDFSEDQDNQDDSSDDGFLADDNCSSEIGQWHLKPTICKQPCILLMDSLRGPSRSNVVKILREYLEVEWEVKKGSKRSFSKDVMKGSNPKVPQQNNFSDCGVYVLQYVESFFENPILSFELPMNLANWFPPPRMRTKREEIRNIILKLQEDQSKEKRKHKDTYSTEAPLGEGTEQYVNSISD
# [11] = target: T5, Sentrin-specific protease 8 (Homo sapiens, UniProt Q96LD8); assay type: functional;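 also: luminescence read-out of SENP8 inhibition, dose-response confirmation following an ultra-high-throughput screen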
# T5 sequence (Q96LD8 whole entry): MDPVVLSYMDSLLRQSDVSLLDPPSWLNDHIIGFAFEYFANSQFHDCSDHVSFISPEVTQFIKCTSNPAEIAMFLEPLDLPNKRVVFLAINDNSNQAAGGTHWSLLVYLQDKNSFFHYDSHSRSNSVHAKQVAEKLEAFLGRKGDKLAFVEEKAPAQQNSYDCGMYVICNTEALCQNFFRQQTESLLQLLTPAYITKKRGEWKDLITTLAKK
# HeLa = experiment: ATP-based viability loss in HeLa cells – cell-based, CellTiter-Glo luminescence, cherry-pick samples, cytotoxicity control for MITF activator project, dose response (AID 540259); assay type: functional; conditions: Homo sapiens
# [12] = target: T6, Probable nicotinate-nucleotide adenylyltransferase (Staphylococcus aureus (strain N315), UniProt P65502); assay type: functional, Staphylococcus aureus subsp. aureus N315;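 as to IC50 Mean: confirmatory dose-response retesting of NadD inhibitor hits first found in an ultra-high-throughput screen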
# T6 sequence (P65502 whole entry): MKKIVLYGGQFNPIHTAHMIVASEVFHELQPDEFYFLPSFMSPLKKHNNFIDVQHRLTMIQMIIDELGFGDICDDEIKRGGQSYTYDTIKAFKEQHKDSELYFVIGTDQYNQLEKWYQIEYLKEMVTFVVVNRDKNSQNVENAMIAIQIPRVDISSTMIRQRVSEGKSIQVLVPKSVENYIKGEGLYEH
# [13] = target: T6, Probable nicotinate-nucleotide adenylyltransferase; assay type: functional, Staphylococcus aureus subsp. aureus N315; conditions: read-out: IC50_Mean
# [14] = inhibition of ARNT PAS-B/TACC3 complex formation – biochemical, AlphaScreen, cherry-picked samples, confirmation (AID 651703); assay type: functional, Homo sapiens;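 also: His-tagged ARNT PAS-B domain paired with GST-TACC3 E629A dimer coactivator fragment; potency of inhibitors that break up the complex and lower AlphaScreen signal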
compound,measurement,setting,value
N=C(N)NC(=O)c1nc(Cl)c(N)nc1N,AC50,[1],9.17 µM (active)
Cc1cc(Cl)ccc1C(=O)C1CCCN(C(=O)c2cncs2)C1 (stereo not drawn),AC50,[2],3.92 µM (active)
CCCc1nnc(SCC(=O)Nc2ccc(C(=O)OCC)cc2)o1,IC50,[3],35.9 µM (inactive)
same,IC50,Steroidogenic factor 1,1.61 µM (active)
same,IC50,[4],35.9 µM (inactive)
COc1ccc(NN=C2C(=O)CC(C)(C)CC2=O)c(OC)c1,IC50,[5],> 100 µM (inactive)
same,IC50,[6],27 µM (active)
same,IC50,Prothrombin,27.3 µM (active)
CCc1ccccc1NC(=O)CSc1nnc([C@@H]2CCCN2C(=O)OC(C)(C)C)o1,IC50,[3],35.9 µM (inactive)
same,IC50,Steroidogenic factor 1,1.86 µM (active)
same,IC50,[4],12 µM (inactive)
O=C(CCCNC(=O)c1ccc(Cl)cc1)OCc1cccc(Br)c1,AC50,[2],5.23 µM (active)
CCOc1ccc(CCNC(=O)c2nnn(CC(=O)Nc3ccc(C)cc3)c2N)cc1OCC,IC50,[5],> 100 µM (inactive)
same,IC50,[6],13.1 µM (active)
same,IC50,Prothrombin,> 100 µM (inactive)
NC(=O)c1ccccc1NCC(=O)c1ccc(F)cc1,IC50,[7],21.6 µM (not active)
same,EC50,Beta-galactosidase,> 40 µM (inactive)
Fc1ccc(NC(S)=Nc2ccc(Cl)cc2Cl)cc1,IC50,[7],> 40 µM (not active)
same,EC50,Beta-galactosidase,> 40 µM (inactive)
CC(=O)c1cccc(NC(=O)CCc2nc3sc4c(c3c(=O)[nH]2)CCCC4)c1,IC50,[5],> 100 µM (inactive)
same,IC50,[6],33.9 µM (active)
same,IC50,Prothrombin,35.5 µM (active)
Oc1cccc2ccc(/C=C/c3cccs3)nc12,IC50,[7],10.3 µM (active)
same,EC50,Streptococcus,4.2 µM (active)
same,EC50,[8],1.92 µM (active)
same,EC50,Beta-galactosidase,> 40 µM (inactive)
COc1ccc(/C=C2\SC(=S)N(C(C)C(=O)NC3C=CS(=O)(=O)C3)C2=O)cc1 (stereo not drawn),AC50,[1],2.73 µM (active)
Clc1ccc(COn2nnc3ccccc32)c(Cl)c1,IC50,Caspase-3,24.1 µM (active)
same,IC50,[9],8.88 µM (active)
same,IC50,[10],31.2 µM (active)
same,IC50,[11],35.3 µM (active)
same,AC50,HeLa,77.9 µM (active)
CC1=C(C(=O)c2ccccc2)C(c2ccc(N3CCOCC3)cc2)NC(=O)N1 (stereo not drawn),IC50,[5],> 100 µM (inactive)
same,IC50,[6],17.1 µM (active)
same,IC50,Prothrombin,15.5 µM (active)
N#CCSc1ccccc1NC(=O)CN1C(=O)C2CC=CCC2C1=O (stereo not drawn),IC50,[3],35.9 µM (inactive)
same,IC50,Steroidogenic factor 1,2.83 µM (active)
same,IC50,[4],6.85 µM (active)
Cc1ccc(Nc2nnc(SCC(O)=C(C#N)c3nc4ccccc4[nH]3)s2)c(C)c1,IC50,[12],8.52 µM (active)
same,IC50,[13],26.7 µM (active)
O=C(N[C@H]1CC[C@H](CCn2cc(-c3ccccn3)nn2)O[C@H]1CO)c1ccccc1,AC50,[14],78.4 µM (active)
C=CCn1c(=O)/c(=C2/Sc3cc(OC)ccc3N2C)s/c1=C1\C(=O)N(CC)C(=S)N1C,IC50,[7],> 40 µM (not active)
same,EC50,Beta-galactosidase,> 40 µM (inactive)
